Experimental data as given in patent publication US10464890B2, “PGAM1 inhibitors and methods related thereto” (Emory University, priority 2011, dated 2019).

Tests used:
Format in all cases: cell-based, human
[1] = system: H1299 cells; test: Cellular 2-PG and 3-PG measurement
Experimental: Cellular metabolites were extracted and spectrophotometrically measured as described previously with some modifications. To determine cellular concentration of 2-PG and 3-PG, 100 μL of packed cell pellets were homogenized in 1.5 ml of hypotonic lysis buffer (20 mM HEPES (pH 7.0), 5 mM KCl, 1 mM MgCl2, 5 mM DTT, and protease inhibitor cocktail). The homogenates were centrifuged in a cold room at 4° C. for 10 minutes at maximum speed, and the supernatants were applied to Amicon Ultra tubes with 10KDa cut off filter (Millipore). The flow through containing the metabolites was used for the measurement. NADH, ADP, and MgCl2 were added to the flow through to final concentrations of 0.14 mM, 1 mM, and 50 mM, respectively. Recombinant LDH and PKM1 proteins were added to final concentrations of 5 μg/ml and 10 μg/ml, respectively. Recombinant enolase protein was added to a final concentration of 50 μg/ml to measure cellular 2-PG. Once the reaction was initiated by enolase, a decrease in absorbance at 340 nm from NADH oxidation was measured by a DU800 spectrophotometer (Beckman). After termination of the enolase reaction, recombinant PGAM1 protein was added to a final concentration of 25 μg/ml and the decrease in absorbance at 340 nm was immediately monitored to measure cellular 3-PG. 100 μL of 2-PG and 3-PG (Sigma) diluted with 1.5 ml of hypotonic lysis buffer were used as the standards.
Alternatively, perchloric acid was used to quench metabolism and the acid extracts from H1299 cell lysates were then neutralized with KOH (DeBerardinis et al., 2007), followed by enzymatic reactions using the final supernatant to determine the 3-PG and 2-PG levels. An isotope-ratio based detection method was used to determine intracellular 3-PG and 2-PG levels in cells. In brief, pure standards were derivatized with a trimethylsilyl donor (Tri-Sil, Pierce) and used to determine the retention times of 2-PG and 3-PG on GC/MS. These standards were also used to identify parent ions containing all three 2-PG and 3-PG carbons on the derivatized molecule (m/z 459 for both 2-PG and 3-PG), and to generate algorithms for natural isotope abundance correction. Next, two dishes of H1299 cells were cultured in RPMI supplemented with [U-^13C]glucose so that approximately 25% of the total glucose pool was labeled. After 6 hours of culture, the cells were quickly rinsed in ice-cold normal saline, lysed in 1 mL of cold 50% methanol, and frozen in liquid nitrogen. […] The second sample was spiked with 25 nmoles of unlabeled 2-PG and 3-PG, derivatized, and analyzed by GC/MS. […] Assuming a 100 μL volume for the cell pellet, these figures correlate to intracellular concentrations of 66 μM for 2-PG and 81 μM for 3-PG, very close to the values measured by the enzymatic assay.

[2] = system: H1299 cells; test: 14C-lipid synthesis and 14C-RNA synthesis assays
Experimental: ^14C-lipids synthesized from ^14C-glucose were measured. […] Wells were washed with an additional 500 μL of hexane:isopropanol solution, and extracts were combined and air dried with heat. Extracted lipids were resuspended in 50 μL of chloroform, and subjected to scintillation counting. Scintillation counts were normalized with cell numbers counted by a microscope (×40). ^14C-RNA synthesized from ^14C-glucose was measured. […] RNA was then extracted using RNeasy columns (Qiagen) and ^14C-RNA was assayed by scintillation counter. ^14C counts for each sample were normalized by the amount of RNA.

[3] = system: H1299 cells; test: Cell proliferation assay, H1299
Experimental: For leukemia cell proliferation assay, 10×10^4 cells were seeded in non-tissue culture coated 6-well plate and incubated at 37° C. for indicated times. Cell numbers were counted by trypan blue exclusion under a microscope (×40) at indicated times and the percentage of cell proliferation was determined by comparing PGAM1 knockdown cells to pLKO.1 vector expressing cells. […] Cell viability was determined by counting drug-treated cells compared to DMSO-treated control cells with trypan blue exclusion under a microscope (×40) and by using CellTiter96Aqueous One solution proliferation kit (Promega). For adherent cell proliferation assay such as H1299 and MDA-MB231 cells, 5×10^4 cells were seeded in 6-well plate 24 h before the assay starts and were cultured at 37° C. 24 h after seeding, cells were treated with 5 μM Methyl-2PG and incubated at 37° C. for indicated times. Cell proliferation was determined by the increase in cell number indicated times after the treatment starts compared to that at the treatment starts for each cell line (T=0). Cell numbers were counted by trypan blue exclusion under a microscope (×40). For adherent cell viability assay with trypan blue exclusion, 5×10^4 cells were seeded in 6-well plate 24 h before the assay starts and were cultured at 37° C. […] Cell viability was determined by counting drug-treated cells compared to DMSO-treated control cells with trypan blue exclusion under a microscope (×40). For MTT cell viability assay of adherent cells, 5×10^3 cells were seeded in 96-well plate 24 h before the assay starts and were cultured at 37° C. […] Cell viability was determined by using CellTiter96Aqueous One solution proliferation kit (Promega).

[4] = system: H1299 cells; test: Oxidative PPP flux assay using 14CO2 release
Experimental: Cells were seeded on 6-cm dishes that are placed in a 10-cm dish with 2 sealed pinholes on the top. ^14CO2 released from cells was collected by completely sealing the 10-cm dish, in which the cells on the 6-cm dish were incubated in 2 ml of medium containing [1-^14C]- or [6-^14C]-glucose, respectively, at a final specific activity of 10 μCi/ml glucose at 37° C. for 3 h. The oxidative PPP flux was stopped by injecting 0.3 ml of 50% TCA through one of the holes on the top, and at the same time ^14CO2 released was trapped by injecting 0.3 ml of Hyamine Hydroxide into a small cup placed on the 10-cm dish through the second hole. Krebs cycle measurements, obtained in parallel samples incubated with [6-^14C]-glucose, were used to correct the oxidative PPP flux measurements obtained from samples incubated with [1-^14C]-glucose. Each dish was completely re-sealed with parafilm and incubated overnight at room temperature. Hyamine Hydroxide in the small cup was dissolved into 60% methanol and directly subjected to scintillation counting.

[5] = H1299 PGAM1 knockdown cells, methyl-2-PG
[6] = H1299 cells treated with PGMI-004A

| Structure (SMILES) | 2-PG cellular levels ([1]; diverse PGAM1 knockdown cancer cells treated with methyl-2-PG) | 3-PG concentrations ([1]; diverse PGAM1 knockdown cells treated with methyl-2-PG) | biosynthesis of RNA and lipids [2, 5] | cell proliferation [3, 5] | oxidative PPP flux [4, 5] | 2-PG levels [1, 6] | 3-PG levels [1, 6] | biosynthesis of RNA [2, 6] | biosynthesis of lipids [2, 6] | cell proliferation ([3]; H1299 cells) | oxidative PPP flux [4, 6] |
| --- | --- | --- | --- | --- | --- | --- | --- | --- | --- | --- | --- |
| COC(=O)[C@@H](CO)OP(=O)(O)O [methyl-2-PG, methyl ester of D(+)-2-phosphoglyceric acid, reference compound] | increased 2-PG cellular levels | decreased 3-PG concentrations | rescues | partially restores the reduced cell proliferation | rescues the decreased oxidative PPP flux | – | – | – | – | – | – |
| O=C1c2ccccc2C(=O)c2c1cc(S(=O)(=O)Nc1ccc(C(F)(F)F)cc1)c(O)c2O [PGMI-004A, N-(4-trifluoromethyl)-penyl-3,4-dihydroxy-9,10-dioxo-2-anthracenesulfonamide] | – | – | – | – | – | decreased | increased | reduced | reduced | reduced | decreased oxidative PPP flux |
